≈ marks a conversion by molar mass, not a printed value. Blank lines part the entries; values can stand above or below the molecule they belong to. Where a SMILES comes first, the peptide text is derived from it. Bridges are numbered along the chain shown (N, C = ends). [ ]: non-standard residue; d: D form. The star is where a group is joined. Octanoyl = CCCCCCCC(=O)*; Dab = NCC[C@H](N)C(=O)O
Assays:
Escherichia coli [1] = assay: Antimicrobial activity against Escherichia coli K-12; type: functional
Escherichia coli [2] = assay: Antimicrobial activity against Escherichia coli; type: functional
Pseudomonas aeruginosa [3] = assay: Antimicrobial activity against Pseudomonas aeruginosa; type: functional, organism-based
Salmonella enterica = assay: Antimicrobial activity against Salmonella enterica; type: functional
Staphylococcus aureus = assay: Antimicrobial activity against Staphylococcus aureus; type: functional
[4] = (§1) Toxicity in iv dosed CF1 mouse; type: organism-based; conditions: CF1, mouse, in vivo
Klebsiella pneumoniae = assay: Antimicrobial activity against Klebsiella pneumoniae; type: functional
Mus musculus [5] = assay: Protective activity in sc dosed CF1 mouse; conditions: in vivo
Escherichia coli [6] = assay: Antimicrobial activity against Escherichia coli assessed as relative sensitizing activity; type: functional
Lipopolysaccharide (LPS) = assay: Displacement of dansyl-PMB from LPS by isothermal titration calorimetry
[7] = (§2) Toxicity in mouse; type: organism-based; conditions: in vivo
Mus musculus [8] = assay: Acute toxicity in iv dosed mouse; type: organism-based; conditions: in vivo
Escherichia coli [9] = assay: Antimicrobial activity against PMB-resistant Escherichia coli SC9253; type: functional
Escherichia coli [10] = assay: Antimicrobial activity against PMB-susceptible Escherichia coli SC9251; type: functional
Mus musculus [11] = assay: as §1; type: organism-based; conditions: mouse, in vivo
Mus musculus [12] = organism: Mus musculus; assay: as §2; type: organism-based; conditions: in vivo
Pseudomonas aeruginosa [13] = test system: Pseudomonas aeruginosa

MIC (Escherichia coli [1]): 12 µg/mL (≈ 11.2 µM)
Molecule: CCCCCCCCC(=O)N[C@H](C(=O)N[C@@H](CCN)C(=O)N[C@H]1CCNC(=O)[C@H]([C@@H](C)O)NC(=O)[C@H](CCN)NC(=O)[C@H](CCN)NC(=O)[C@H](CC(C)C)NC(=O)[C@@H](CC(C)C)NC(=O)[C@H](CCN)NC1=O)[C@@H](C)O

MIC (Escherichia coli [1]): 3 µg/mL (≈ 2.73 µM)
Molecule: CCCCCCCCCCC(=O)N[C@H](C(=O)N[C@@H](CCN)C(=O)N[C@H]1CCNC(=O)[C@H]([C@@H](C)O)NC(=O)[C@H](CCN)NC(=O)[C@H](CCN)NC(=O)[C@H](CC(C)C)NC(=O)[C@@H](CC(C)C)NC(=O)[C@H](CCN)NC1=O)[C@@H](C)O

MIC (Escherichia coli [1]): 50 µg/mL (≈ 46.2 µM)
Molecule: CCC(C)CCCCCC(=O)N[C@H](C(=O)N[C@@H](CCN)C(=O)N[C@H]1CCNC(=O)[C@H]([C@@H](C)O)NC(=O)[C@H](CCN)NC(=O)[C@H](CCN)NC(=O)[C@H](CC(C)C)NC(=O)[C@@H](CC(C)C)NC(=O)[C@H](CCN)NC1=O)[C@@H](C)O (some centres undefined)

MIC (Escherichia coli [1]): 3 µg/mL (≈ 2.7 µM)
Molecule: CCCCCCCCCCCC(=O)N[C@H](C(=O)N[C@@H](CCN)C(=O)N[C@H]1CCNC(=O)[C@H]([C@@H](C)O)NC(=O)[C@H](CCN)NC(=O)[C@H](CCN)NC(=O)[C@H](CC(C)C)NC(=O)[C@@H](CC(C)C)NC(=O)[C@H](CCN)NC1=O)[C@@H](C)O

MIC (Escherichia coli [2]): 4 µM | MIC (Escherichia coli [1]): 12 µg/mL (≈ 10.5 µM) | MIC (Pseudomonas aeruginosa [3]): 4 µM | MIC (Salmonella enterica): 2 µM (≈ 2.28 µg/mL)
Molecule: CCCCCCCCCCCCCC(=O)N[C@H](C(=O)N[C@@H](CCN)C(=O)N[C@H]1CCNC(=O)[C@H]([C@@H](C)O)NC(=O)[C@H](CCN)NC(=O)[C@H](CCN)NC(=O)[C@H](CC(C)C)NC(=O)[C@@H](CC(C)C)NC(=O)[C@H](CCN)NC1=O)[C@@H](C)O

MIC (Escherichia coli [2]): 0.5 µg/mL | MIC (Pseudomonas aeruginosa [3]): 2 µg/mL | MIC (Staphylococcus aureus): ≥ 16 µg/mL
Molecule: CCCCCCCCC(=O)N[C@H](C(=O)N[C@@H](CCN)C(=O)N[C@H]1CCNC(=O)[C@H]([C@@H](C)O)NC(=O)[C@H](CCN)NC(=O)[C@H](CCN)NC(=O)[C@H](CC(C)C)NC(=O)[C@@H](Cc2ccccc2)NC(=O)[C@H](CCN)NC1=O)[C@@H](C)O

Molecule: CCCCCCCC(=O)N[C@@H](CCN)C(=O)N[C@H](C(=O)N[C@@H](CCN)C(=O)N[C@H]1CCNC(=O)[C@H]([C@@H](C)O)NC(=O)[C@H](CCNC(=O)[C@@H](N)CCCNC(=N)N)NC(=O)[C@H](CCN)NC(=O)[C@H](CC(C)C)NC(=O)[C@@H](Cc2ccccc2)NC(=O)[C@H](CCN)NC1=O)[C@@H](C)O (Octanoyl-[Dab]T[Dab][Dab][Dab][dF]L[Dab][Dab](Arg)T; lactam 4-C)
LD50 [4]: 15 mg/kg | MIC (Escherichia coli [2]): 0.16 µg/mL | MIC (Klebsiella pneumoniae): 2 µg/mL (≈ 1.49 µM) | MIC (Pseudomonas aeruginosa [3]): 0.03 µg/mL | PD50 (Mus musculus [5]): 0.25 mg/kg

MIC (Escherichia coli [2]): 0.03 µg/mL | MIC (Pseudomonas aeruginosa [3]): 4 µg/mL | MIC (Staphylococcus aureus): ≥ 16 µg/mL
Molecule: CCCCCCCC(=O)N[C@H](C(=O)N[C@@H](CCN)C(=O)N[C@H]1CCNC(=O)[C@H]([C@@H](C)O)NC(=O)[C@H](CCN)NC(=O)[C@H](CCN)NC(=O)[C@H](CC(C)C)NC(=O)[C@@H](Cc2ccccc2)NC(=O)[C@H](CCN)NC1=O)[C@@H](C)O (stereo in doubt; 80) [Octanoyl Polymixin B nonapeptide]

Molecule: CC(C)C[C@@H]1NC(=O)[C@@H](Cc2ccccc2)NC(=O)[C@H](CCN)NC(=O)[C@@H](NC(=O)[C@H](CCN)NC(=O)[C@@H](N)[C@@H](C)O)CCNC(=O)[C@H]([C@@H](C)O)NC(=O)[C@H](CCN)NC(=O)[C@H](CCN)NC1=O (stereo in doubt; 193) [POLYMYXIN B NONAPEPTIDE]
Activity (Escherichia coli [6]): 100% | IC50 (Lipopolysaccharide (LPS); read-out: IC50): 2.5 nmol/mL | LD50 [7]: 43 mg/kg

MIC (Escherichia coli [2]): 1 µg/mL | MIC (Pseudomonas aeruginosa [3]): 2 µg/mL | MIC (Staphylococcus aureus): ≥ 16 µg/mL
Molecule: CCCCCCCCCC(=O)N[C@H](C(=O)N[C@@H](CCN)C(=O)N[C@H]1CCNC(=O)[C@H]([C@@H](C)O)NC(=O)[C@H](CCN)NC(=O)[C@H](CCN)NC(=O)[C@H](CC(C)C)NC(=O)[C@@H](Cc2ccccc2)NC(=O)[C@H](CCN)NC1=O)[C@@H](C)O [DECANOYL POLYMIXIN B NONAPEPTIDE]

Molecule: CC(C)C[C@@H]1NC(=O)[C@@H](Cc2ccccc2)NC(=O)[C@H](CCN)NC(=O)[C@@H](NC(=O)[C@H](CCN)NC(=O)[C@@H](NC(=O)[C@H](CN)NC(=O)O)[C@@H](C)O)CCNC(=O)[C@H]([C@@H](C)O)NC(=O)[C@H](CCN)NC(=O)[C@H](CCN)NC1=O [DESFA-[DIAMINOPROPANOIC ACID1]POLYMYXIN B]
MIC (Escherichia coli [2]): 8 µM | MIC (Pseudomonas aeruginosa [3]): 1 µM | IC50 (Lipopolysaccharide (LPS)): 14 nmol/mL | MIC (Salmonella enterica): 16 µM (≈ 17.5 µg/mL) | LD50 (Mus musculus [8]): 23.5 µM/g

Molecule: CC(C)C[C@@H]1NC(=O)[C@@H](Cc2ccccc2)NC(=O)[C@H](CCN)NC(=O)[C@@H](NC(=O)[C@H](CCN)NC(=O)[C@@H](NC(=O)[C@H](Cc2c[nH]c3ccccc23)NC(=O)O)[C@@H](C)O)CCNC(=O)[C@H]([C@@H](C)O)NC(=O)[C@H](CCN)NC(=O)[C@H](CCN)NC1=O [DESFA-[TRP1]POLYMYXIN B]
MIC (Escherichia coli [2]): 8 µM | MIC (Pseudomonas aeruginosa [3]): 8 µM | IC50 (Lipopolysaccharide (LPS)): 20 nmol/mL | MIC (Salmonella enterica): 8 µM (≈ 9.55 µg/mL) | LD50 (Mus musculus [8]): 19 µM/g

Molecule: CC(C)CCCCCC(O)CC(=O)N[C@@H](CCN)C(=O)N[C@H]1CCNC(=O)[C@H](CC(C)C)NC(=O)[C@H](CCN)NC(=O)[C@H](CCN)NC(=O)[C@H](CC(C)C)NC(=O)[C@@H](Cc2ccccc2)NC(=O)[C@H](CCN)NC1=O (some centres undefined) [OCTAPEPTIN A1]
MIC (Escherichia coli [9]): 0.3 µg/mL (≈ 0.283 µM) | MIC (Escherichia coli [10]): 1.7 µg/mL (≈ 1.61 µM)

Molecule: POLYMYXIN B [listing 1 of 2 here]
LD50 (Mus musculus [11]): 9 mg/kg | IC50 (Lipopolysaccharide (LPS)): 4 nmol/mL | LD50 (Mus musculus [12]): 9 mg/kg | LD50 (Mus musculus [8]): 4.8 µM/g

MIC (Escherichia coli [2]): 1 µM | MIC (Salmonella enterica): 1 µM | MIC (Pseudomonas aeruginosa [13]): 1000 nM
Molecule: POLYMYXIN B [listing 2 of 2 here]
